{
  "source": "patent US9248163B2",
  "about": "“Insulin-like growth factor binding protein 7 for treatment of cancer” (University of Massachusetts, priority 2007, dated 2016)",
  "key": {"primary melanocytes": {"tested_on": "primary melanocytes", "test": "Proliferation assay of primary melanocytes (trypan blue exclusion)", "format": "cell-based, human", "conditions": "14 days after treatment", "method": "For the proliferation assay shown in FIG. 1B, 1×10^4 cells stably expressing an shRNA were cultured in 12-well plate format, infected with BRAFV600E-expressing retrovirus and after 14 days stained with crystal violet. For all other quantitative proliferation assays, cell viability was measured by trypan blue exclusion test at the time point indicated in the relevant figure legend. Values were expressed as percent cell growth, as described in the relevant figure legend. For the proliferation assays shown in FIG. 2A, CM was replenished every 3 days, and proliferation was measured after a total of 14 days of CM treatment. Unless otherwise stated, rIGFBP7 was added to the culture medium at a concentration of 10 μg/ml.\nTo confirm that IGFBP7 could block cellular proliferation, purified recombinant IGFBP7 (rIGFBP7) was purified from baculovirus-infected insect cells. […] Collectively, the results of FIGS. 2A-2D indicate that following expression of BRAFV600E, melanocytes synthesize and secrete increased amounts of IGFBP7, which then acts through an autocrine/paracrine pathway to induce senescence."}, "SK-MEL-28 cells [1]": {"tested_on": "SK-MEL-28 cells", "test": "Immunoblot analysis of SMARCB1, BNIP3L and activated caspase 3", "format": "cell-based, human", "conditions": "10 μg/ml", "method": "(§1) To prepare cell extracts, cells were lysed in Laemmli buffer; for phospho-proteins, cells were lysed in the presence of a phosphatase inhibitor cocktail (Sigma). To prepare conditioned media, cells were grown in Opti-MEM™ (Invitrogen) for 24 hours, and media was harvested and concentrated using Centricon™ plus 20 tubes (Millipore). Conditioned media was normalized to cell number prior to loading the gel. For the experiments shown in FIGS. 3D and 4C, rIGFBP7 was added to the culture medium at a concentration of 10 μg/ml. For the MEK/RAF inhibitor experiment of FIG. 4D, SK-MEL-28 cells were treated with 2 μg/ml or 10 μg/ml rIGFBP7, 20 μM or 40 μM of the MEK inhibitor PD98054 (Calbiochem), or 5 nM or 10 nM the RAF inhibitor GW5074 (Sigma) for 24 hours prior to harvesting cells. Proteins were resolved by SDS-PAGE and transferred to nitrocellulose. Blots were probed with the following antibodies: α-p16 (Abcam), α-acetylated H3K9 (Upstate), α-IGFBP7 (Santa Cruz), α-SMARCB1 (Abnova), α-BNIP3L (Proscience), α-BRAFV600E (Santa Cruz), α-cleaved caspase-3 p11 (Santa Cruz), α-β-actin (Sigma), α-phospho-ERK (Cell Signaling) or α-ERK (Cell Signaling)."}, "SK-MEL-28 cells [2]": {"tested_on": "SK-MEL-28 cells", "test": "ChIP assays 24 hours following rIGFBP7 treatment", "format": "cell-based, human", "method": "Chromatin immunoprecipitation (ChIP) assays were performed using extracts prepared 24 hours following rIGFBP7 treatment. The following antibodies were used: α-BRG1 (de La Serna et al., 2000, Mol. Cell. Biol., 20:2839-51), α-phospho-STAT1 (Upstate), and α-SMARCB1 and α-STAT1 (Santa Cruz). For ChIP experiments on the SMARCB1 promoter, primers spanning a STAT1 binding site located ˜2.4 kb upstream of the transcription start-site were used. For ChIP experiments on the BNIP3L promoter, a series of primer-pairs that covered ˜2 kb of the BNIP3L promoter were used; following addition of rIGFBP7, SMARCB1 and BRG1 were recruited to the BNIP3L promoter near the transcription start-site. ChIP products were analyzed by quantitative real-time PCR using Platinum SYBR™ Green qPCR SuperMix-UDG with Rox (Invitrogen). Calculation of fold differences was done as previously described (Pfaffl, 2001, Nucleic Acids Res., 29:e45)."}, "[3]": {"tested_on": "BRAF-MEK-ERK signaling in SK-MEL-28 cells", "test": "Immunoblot analysis of BRAF-MEK-ERK signaling (phospho-ERK, activated MEK1/2, RKIP)", "format": "cell-based, human", "method": "as §1\nTo test this idea, rIGFBP7 was added to BRAFV600E-positive SK-MEL-28 melanoma cells, and the levels of total and activated ERK (phospho-ERK) were analyzed."}, "[4]": {"tested_on": "NCI 60 panel of human cancer cell lines", "test": "Apoptosis (Annexin V-PE) in the NCI 60 panel of human cancer cell lines", "format": "cell-based", "method": "The ability of IGFBP7 to induce apoptosis was assessed in the NCI 60 panel of human cancer cell lines, which were obtained from the National Cancer Institute (NCI). The panel includes cell lines corresponding to breast (MDA-MB-231, HS 578T, BT-549, T47-D, MCF7), ovarian (NCI-ADR-RES, OVCAR-3, OVCAR-5, OVCAR-8, OVCAR-4, SK-OV-3, IGROV1), prostate (DU-145, PC-3), renal (TK-10, CAKI-1, A496, ACHN, RXF-393, 786-O, SN12C, UO-31), non-small cell lung (NCI-H460, HOP-62, A549-ATCC, NCI-H226, EKVX, NCI-H322M, HOP-92, NCI-H522), central nervous system (CNS) (SF-295, SF-268, SF-539, SNB-19, SNB-75, U251), colon (HCT-15, SW-620, COLO205, HT29, HCC-2998, HCT-116, SM-12), melanoma (SK-MEL-28, SK-M2L-2, LOX IMV1, M14, MALM-3M, SK-MEL-5, UACC-257, UACC-62, MDA-MB-435), and hematopoietic (CCRF-CEM, K-562, MOLT-4, SR, RPMI-8226) cancers. These cell lines have been extensively characterized and their mutational status for a number of human cancer genes, including BRAF and RAS (e.g., NRAS, KRAS, or HRAS), is known (see the World Wide Web at discover.nci.nih.gov/cellminer/mutationGeneLoad.do).\nrIGFBP7 was expressed and purified as described above. To monitor apoptosis following rIGFBP7 treatment, 5×10^5 cells were treated with rIGFBP7 (10 μg/ml) for 24 hours and stained for Annexin V-PE. The results are shown in FIG. 11A. rIGFBP7 induced apoptosis in 11/11 (100%) of the cell lines that contained a BRAF mutation and 8/13 (61.5%) of the cell lines that contained a RAS mutation. One cell line contained both a BRAF and a RAS mutation, and this cell line was susceptible to rIGFBP7-mediated apoptosis."}, "[5]": {"tested_on": "A375(Fluc-IRES-GFP) cells", "test": "Pulmonary metastasis model, A375(Fluc-IRES-GFP) cells by tail vein injection", "description": "For these experiments, A375(Fluc-IRES-GFP) cells were used, which are a highly metastatic, BRAF-positive human melanoma cell line stably expressing an Fluc-IRES-GFP reporter construct (where Fluc is the firefly luciferase gene, IRES is an internal ribosomal entry site and GFP is green fluorescent protein) (Collisson et al., 2003, Cancer Res., 63:5669-5673). The presence of Fluc-IRES-GFP enables tumor growth to be quantified over time in live animals by serial bioluminescent optical imaging.\nTwo treatment regimens were tested. In one set of experiments, administration of IGFBP7 was initiated 3 days after injection of A375-Fluc cells, at which time metastatic disease would be significant (FIG. 12A). In these experiments, 7×10^5 A375(Fluc-IRES-GFP) cells were injected into the tail vein of 10 athymic Balb/c (nu/nu) mice (Taconic). At days 3, 6 and 9, mice were injected via the tail vein with either 100 μg purified, recombinant IGFBP7 (n=5 mice) or, as a control, phosphate buffered saline (PBS) (n=5 mice). On day 6, mice were analyzed for quantitation of metastatic tumor burden by using a Xenogen brand bioluminescent imaging system. […] Mice were monitored daily for viability over 30 days, and the ability of systemically administered IGFBP7 to suppress metastatic disease was assessed by survival assays (Kaplan-Meier analysis).\nIn a second set of experiments, administration of IGFBP7 was initiated both before and shortly after injection of A375(Fluc-IRES-GFP) cells, to test the ability of IGFBP7 to function prophylactically to prevent metastasis and/or treat early metastatic disease (FIG. 13A). In these experiments, 100 μg purified, recombinant IGFBP7 (or, as a control, PBS) was injected into the tail vein of mice (n=5 mice for each group). One day later, mice were injected with 7×10^5 A375(Fluc-IRES-GFP) cells, followed by injection of 100 μg on days 3 and 6. Mice were monitored daily for viability over 30 days, and the ability of systemically administered IGFBP7 to suppress metastatic disease was assessed by survival assays (Kaplan-Meier analysis)."}},
  "data": [
    {"substance": "rIGFBP7: purified recombinant human IGFBP7, C-terminal Flag-tagged, from baculovirus-infected Sf9 insect cells", "values": [
      {"measurement": "proliferation of primary melanocytes", "setting": "primary melanocytes", "value": "blocked proliferation of primary melanocytes in a dose-dependent manner"},
      {"measurement": "apoptosis by caspase 3 activation", "setting": "SK-MEL-28 cells [1]", "value": "apoptosis occurred as evidenced by caspase 3 activation"},
      {"measurement": "expression of SMARCB1 and BNIP3L", "setting": "SK-MEL-28 cells [1]", "value": "significantly increased"},
      {"measurement": "STAT1 recruitment to the SMARCB1 promoter", "setting": "SK-MEL-28 cells [2]; SK-MEL-28 cells", "value": "recruited"},
      {"measurement": "SMARCB1 and BRG1 recruitment to the BNIP3L promoter", "setting": "SK-MEL-28 cells [2]; near the transcription start-site", "value": "recruited"},
      {"measurement": "growth factor-induced ERK activation", "setting": "[3]", "value": "blocked"},
      {"measurement": "RAF inhibitory protein (RKIP) expression", "setting": "[3]; SK-MEL-28 cells", "value": "upregulation"},
      {"measurement": "levels of activated MEK1/2", "setting": "[3]; SK-MEL-28 cells", "value": "decreased levels"},
      {"measurement": "phospho-ERK level", "setting": "[3]; SK-MEL-28 cells, 24 hours, 0.2-10 μg/ml", "value": "dose-dependent loss of phospho-ERK"},
      {"measurement": "cell lines in which apoptosis was induced", "setting": "[4]; cell lines that contained a BRAF mutation (11/11), 10 μg/ml, 24 hours", "value": 100, "unit": "%"},
      {"measurement": "cell lines in which apoptosis was induced", "setting": "[4]; cell lines that contained a RAS mutation (8/13), 10 μg/ml, 24 hours", "value": 61.5, "unit": "%"},
      {"measurement": "cell lines susceptible to apoptosis", "setting": "[4]; cell lines without a BRAF or RAS mutation (4/34), 10 μg/ml, 24 hours", "value": 11.8, "unit": "%"},
      {"measurement": "susceptibility to rIGFBP7-mediated apoptosis", "setting": "[4]; one cell line with both a BRAF and a RAS mutation", "value": "susceptible"},
      {"measurement": "survival (Kaplan-Meier)", "setting": "[5]; 100 μg one day before cell injection and on days 3 and 6, PBS mice died within 18 days", "value": "still viable at day 30"},
      {"measurement": "survival (Kaplan-Meier)", "setting": "[5]; 100 μg tail vein at days 3, 6 and 9 after cell injection, control mice died at 20 days", "value": "still viable at day 30"},
      {"measurement": "lung metastasis by bioluminescent imaging", "setting": "[5]; 100 μg tail vein from day 3, imaged on day 6", "value": "no evidence of lung metastasis"}
    ]}
  ]
}
